Assays:
[1] = tested on: recombinant HPAF-II/OX1R cells xenografted in nude mice; assay: Tumorigenicity assay: recombinant HPAF-II/OX1R cells xenografted in nude mice; assay type: in vivo
Method: FIG. 8A-C. Effect of daily inoculation of orexin-A on the growth of tumors developed by xenografting OX1R expressing recombinant HPAF-II cells in nude mice. Parental HPAF-II (A) or recombinant OX1R/HPAF-II/cells (B) were inoculated in the flank of nude mice at day 0. Mice were injected daily intraperitoneally with 100 μl of 1 μmoles of orexin-A/Kg solutions starting at day 0 for both cell lines (◯) or day 28 for OX1R/HPAF-II cells (▴) or with 100 μl of PBS ([…]) for controls. The development of tumors was followed by caliper measurement; C. Formalin-fixed xenografted HPAF-II or OX1R/HPAF-II tumors from nude mice intraperitoneally injected daily or not with 1 μmoles/Kg orexin-A were analyzed by cleaved caspase-3 immunostaining. Cleaved caspase-3 positive cells were counted in 10 different fields, each comprising 500 tumoral cells, in the presence (black bars) or absence (white bars) of 50 days orexin-A treatment. Data are the means±SE of 6 tumors in each group; *** p<0.01 versus control.
Control mice received PBS.
After dewaxing, rehydrating tumor paraffin sections, and antigen retrieval by pretreatment with high temperature at pH 9, immunohistochemical procedures were carried out using an automated immunohistochemical stainer according to the manufacturer's guidelines (Bond-Max slide stainer, Menarini, Leica Microsystems). For immunohistochemistry on cell lines, cells in pellets were fixed in formalin, embedded in cell blocks (Shandon Cytoblock; Thermo Scientific; USA) and cut into 3 μm sections. […] OX1R immunostaining was evaluated by two investigators (TV and AC) by calculating a score (0-300) obtained by multiplying the intensity (negative, 0; weak, 1; moderate, 2; and strong, 3) by the percentage of stained cells. The pattern of expression (cytoplasmic, membranous, and nuclear) was also recorded, and a mean score was calculated for each tumor. […] Cleaved caspase-3 immunostaining was determined by calculating the percentage of tumor cells stained in 10 fields of xenografted tumor cells, each field comprising 500 tumor cells.

parental HPAF-II cells = assay: Quantification of apoptotic cells by annexin V-PE labeling in parental HPAF-II cells; assay type: cell-based, human; conditions: 1 μM orexin-A
Method: FIGS. 5A and B. Effect of orexin-A on apoptosis in OX1R expressing recombinant OX1R/HPAF-II cells. A, Parental HPAF-II and recombinant OX1R/HPAF-II cells were challenged with (black bars) or without (white bars) 1 μM orexin-A for 48 hr in the absence or presence of the SHP-2 protein tyrosine phosphatase inhibitor, NSC-87877 (50 μM). Apoptosis was measured by determination of annexin V-PE binding. Results are expressed as the percentage of apoptotic cells, and are the means±SE of three separate experiments. ***p<0.001; ns, non-significant; B, paraformaldehyde-fixed HPAF-II cells and recombinant OX1R/HPAF-II cells were challenged with or without (Basal) 1 μM orexin-A for 48 hr. Indirect immunostaining of activated caspase-3 in parental HPAF-II cells (left panels) and recombinant OX1R/HPAF-II cells (right panels) in the presence (bottom panels) or tabsence (top panels) of orexin-A is illustrated in B.
(§1) AsPC-1, SW 1990, HPAF-II and HPAF-II/hOX1R cells (seeded at 5×10^4 cells/well) were grown in 24-well plates for 24 hr under the culture conditions described above. The culture medium was then replaced every 24 hr with fresh medium with or without orexin-A (GL Biochemicals) at a concentration of 1 μM in the presence or absence of the SHP-2 inhibitor, NSC-87877 (50 μM) (Calbiochem, VWR International SAS, France). At the end of the treatment (48 hr), apoptotic cells were determined using the Guava Nexin™ kit (Guava Technologies, Hayward, Calif., USA), which discriminates between apoptotic and non-apoptotic cells (Rouet-Benzineb P, Rouyer-Fessard C, Jarry A, et al. Orexins Acting at Native OX1 Receptor in Colon Cancer and Neuroblastoma Cells or at Recombinant OX1 Receptor Suppress Cell Growth by Inducing Apoptosis. J Biol Chem 2004; 279:45875-86), analyzed with the Guava Personal Cell Analysis (PCA) system (Merck-Millipore, Guyancourt, France), and counted (2,000 events) (Voisin et al, 2008, as above). Results are expressed as the percentage of apoptotic phycoerythrin-labelled Annexin V (Annexin V-PE) positive cells and are the means of 3 independent analyses.

AsPC-1 cells = assay: Quantification of apoptotic cells by annexin V-PE labeling in AsPC-1 cells; assay type: cell-based, human; conditions: 1 μM orexin-A, 48 hr
Method: FIG. 4A-C. Effect of orexin-A on apoptosis in AsPC-1 cells. A, SHP-2 protein tyrosine phosphatase inhibitor, NSC-87877, blocks orexin-induced apoptosis. AsPC-1 cells were challenged with (black bars) or without (white bars) 1 μM orexin-A for 48 hr in the absence or presence of NSC-87877 (50 μM). Apoptosis was measured by determination of annexin V-PE binding, and results are expressed as the percentage of apoptotic cells; B and C: Indirect immunostaining of activated caspase-3 in AsPC-1 cells in the presence or absence of orexin-A. Paraformaldehyde-fixed AsPC-1 cells were challenged with (orexin-A) or without (basal) 1 μM orexin-A for 48 hr. Activated caspase-3 immunostaining is shown in B and scored in C. Results are means±SE of three separate experiments. ***p<0.001; ns, non-significant.
as §1

Substance: orexin-A: 33 amino acid hypothalamic neuropeptide, OX1R agonist, SEQ ID NO:2; peptide from GL Biochemicals
- caspase-3 activation in tumors as compared to tumors from parental HPAF-II cells ([1]; 1 μmoles/Kg daily i.p., 50 days, cleaved caspase-3 positive cells): 3.5 fold
- tumor volumes, treatment of established tumors ([1]; orexin-A started after 28 days tumor growth): significant reduction in tumor volumes
- inhibition of tumor development ([1]; treated daily with orexin-A from day 0): about 65%
- induction of apoptosis (parental HPAF-II cells; 48 hr, untransfected parental HPAF-II cells): did not induce apoptosis
- annexin-V positive apoptotic cells (parental HPAF-II cells; untransfected cells): 2.1%±0.4
- percentage of apoptotic cells (annexin V-PE) (AsPC-1 cells): 24.3%±1.4
